Six sequences from article PMC2248166, “Quantitative peptide binding motifs for 19 human and mouse MHC class I molecules derived using positional scanning combinatorial peptide libraries” (Immunome Research, 2008) can be followed below.

Targets include HLA B*3501 (Homo sapiens, UniProt P01889, A329T/A93T/A95T/C349S/D201E/D98Y/E176V/E187L/E204Q/E69T/I218V/K202T/L119I/Q94N/R155S/R180L/S121R/S35A/S48A/T118I/V127L/V306I/V36M/Y140S/Y91F); HLA A*6802 (Homo sapiens, UniProt P04439, A269V/D140Y/D185E/E176V/E277Q/E87N/F33Y/G231S/I121R/I166T/I218V/L180W/L300P/L318F/N151K/P208A/P217A/Q86R/R138H/R169H/S129P/T345S/V36M); HLA B*5802 (Homo sapiens, UniProt P01889, A329T/C349S/D201E/D98Y/E176V/E187L/E204Q/E69T/G107R/I218V/I90N/K202T/L105A/N104I/N87E/Q89R/Q94S/R106L/R155S/R180L/R86G/S101N/S121W/S35A/S48A/V127L/V306I/V36M/Y140S/Y91M); HLA B*5101 (Homo sapiens, UniProt P01889, A329T/A93T/A95T/C349S/D138N/D201E/D98Y/E187L/E204Q/E69T/G107R/I218V/K202T/L105A/L119W/N104I/Q94N/R106L/R155S/R180L/S101N/S121T/S35A/S48A/V306I/V36M/Y195H/Y91F); HLA B*5401 (Homo sapiens, UniProt P01889, A329T/C349S/D138N/D201E/E176V/E187T/E204Q/E69G/I76V/K202T/L119W/R155S/R180L/S121T/S35A/S48A/V127L/V306I/V36M/Y140L); HLA B*5801 (Homo sapiens, UniProt P01889, A329T/C349S/D201E/D98Y/E176V/E187L/E204Q/E69T/G107R/I218V/I90N/K202T/L105A/L119I/N104I/N87E/Q89R/Q94S/R106L/R155S/R180L/R86G/S101N/S121R/S35A/S48A/T118I/V127L/V306I/V36M/Y140S/Y91M); HLA B*5301 (Homo sapiens, UniProt P01889, A329T/A93T/A95T/C349S/D201E/D98Y/E176V/E187L/E204Q/E69T/G107R/I218V/K202T/L105A/L119I/N104I/Q94N/R106L/R155S/R180L/S101N/S121R/S35A/S48A/T118I/V127L/V306I/V36M/Y140S/Y91F); H-2 K^d (Mus musculus, UniProt P01902); H-2 D^b (Mus musculus, UniProt P01899); H-2 K^k (Mus musculus, UniProt P04223); H-2 D^d (Mus musculus, UniProt P01900).

What all share (type): binding
Another assay deals with HLA A*3001 (Homo sapiens, UniProt P04439, D140H/D185E/E176W/F33S/G80R/H175R/K168Q/R138E/R41S). Put plainly: biochemical.
The target of the next assay is HLA B*1501 (Homo sapiens, UniProt P01889, A329T/A93T/A95T/C349S/D201E/D98Y/E187L/E204Q/E69M/E70A/K202T/N87E/Q94N/R155S/R180W/S121R/S35A/S48A/V306I/V36M/Y140S/Y91S). Put plainly: biochemical.
For a further assay, the target named is HLA A*3201 (Homo sapiens, UniProt P04439, A270S/D101S/D185E/E176V/E277Q/F133L/G103R/G107R/G231S/H175R/I121M/I218V/I322F/K168Q/L105A/L300P/L318F/M331R/P208A/P217A/Q94H/R106L/R138Q/S129P/T104I/T323A/T345S/V100E/V321M/V358M). Put plainly: biochemical.
The next assay addresses HLA B*1503 (Homo sapiens, UniProt P01889, A329T/A93T/A95T/C349S/D201E/D98Y/E187L/E204Q/K202T/N87E/Q94N/R155S/R180L/S121R/S35A/V306I/V36M/Y140S/Y91S). Put plainly: biochemical.
The target of another assay is HLA B*0801 (Homo sapiens, UniProt P01889, A93T/A95T/D138N/E176V/E187T/K202T/Q94N/R180D/S35A/V36M/Y33D/Y91F). In words: biochemical.

Chain of H-2 K^d (P01887 21-119): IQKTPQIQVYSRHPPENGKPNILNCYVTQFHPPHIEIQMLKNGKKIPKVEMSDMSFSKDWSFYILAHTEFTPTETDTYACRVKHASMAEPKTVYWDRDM
Chain of H-2 K^d (P01902 22-368): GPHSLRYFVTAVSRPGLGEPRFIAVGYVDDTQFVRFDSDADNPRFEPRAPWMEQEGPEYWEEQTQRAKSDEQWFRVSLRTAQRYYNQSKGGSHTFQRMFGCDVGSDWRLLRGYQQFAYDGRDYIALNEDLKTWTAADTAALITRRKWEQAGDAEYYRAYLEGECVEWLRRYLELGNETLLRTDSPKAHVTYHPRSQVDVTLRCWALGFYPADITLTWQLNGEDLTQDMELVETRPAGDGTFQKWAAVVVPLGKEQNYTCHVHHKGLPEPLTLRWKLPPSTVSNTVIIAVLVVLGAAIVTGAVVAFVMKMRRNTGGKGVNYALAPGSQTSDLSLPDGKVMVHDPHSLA
Chain of H-2 D^b (P01887 21-119): as the sequence (P01887 21-119) above
Chain of H-2 D^b (P01899 25-362): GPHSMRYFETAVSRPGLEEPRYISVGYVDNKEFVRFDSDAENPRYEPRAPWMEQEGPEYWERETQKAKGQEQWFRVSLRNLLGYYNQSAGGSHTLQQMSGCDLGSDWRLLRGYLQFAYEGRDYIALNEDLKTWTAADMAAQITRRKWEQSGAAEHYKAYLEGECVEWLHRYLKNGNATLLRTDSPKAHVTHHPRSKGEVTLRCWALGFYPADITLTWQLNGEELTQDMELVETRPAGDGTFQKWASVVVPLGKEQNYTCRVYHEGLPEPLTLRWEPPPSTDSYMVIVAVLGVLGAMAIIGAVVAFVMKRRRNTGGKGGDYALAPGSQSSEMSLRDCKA
Chain of H-2 K^k (P01887 21-119): as the sequence (P01887 21-119) above
Chain of H-2 K^k (P04223 22-369): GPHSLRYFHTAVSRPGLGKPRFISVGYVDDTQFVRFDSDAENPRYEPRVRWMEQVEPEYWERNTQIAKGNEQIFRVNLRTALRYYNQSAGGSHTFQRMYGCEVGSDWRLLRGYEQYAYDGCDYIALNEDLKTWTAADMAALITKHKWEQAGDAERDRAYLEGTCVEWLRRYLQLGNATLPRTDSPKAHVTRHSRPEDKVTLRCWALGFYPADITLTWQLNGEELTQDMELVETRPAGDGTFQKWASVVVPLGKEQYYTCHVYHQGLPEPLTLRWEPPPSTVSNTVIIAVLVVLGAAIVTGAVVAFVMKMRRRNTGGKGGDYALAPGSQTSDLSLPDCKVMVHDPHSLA
Chain of H-2 D^d (P01900 whole entry, looked up): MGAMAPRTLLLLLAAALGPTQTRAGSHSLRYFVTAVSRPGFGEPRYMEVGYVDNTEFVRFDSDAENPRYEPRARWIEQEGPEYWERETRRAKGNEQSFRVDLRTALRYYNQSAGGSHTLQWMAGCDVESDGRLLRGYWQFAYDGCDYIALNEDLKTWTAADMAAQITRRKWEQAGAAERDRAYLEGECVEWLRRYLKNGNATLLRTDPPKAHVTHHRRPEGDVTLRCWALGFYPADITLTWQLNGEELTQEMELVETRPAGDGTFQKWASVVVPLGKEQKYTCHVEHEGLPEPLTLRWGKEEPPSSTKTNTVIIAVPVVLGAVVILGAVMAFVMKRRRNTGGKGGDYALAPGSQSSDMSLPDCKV

As to XXXXAXXXX [3064.0081], the “Normalized average relative binding affinity(ARB)” value is listed as 0.57 on HLA B*3501; 0.48 on HLA A*3001; 0.64 at HLA B*1501; 0.48 on HLA A*6802; 0.14 at HLA A*3201; 0.56 at HLA B*5802. Further, the “Normalized average relative binding affinity(ARB)” value is 1.0 on HLA B*5101; 1.0 at HLA B*1503; 0.29 at HLA B*5401; 0.28 on HLA B*5801; 0.13 on HLA B*5301; 0.37 on H-2 K^d. For the same sequence, the “Normalized average relative binding affinity(ARB)” value at HLA B*0801 came out at 0.029; on H-2 D^b, 0.046; on H-2 K^k, 0.14; at H-2 D^d, 0.37.
Take XXXXCXXXX [3064.0082]: the “Normalized average relative binding affinity(ARB)” value is given as 0.37 on HLA B*3501; 0.12 on HLA A*3001; 0.87 at HLA B*1501; 0.65 at HLA A*6802; 0.15 on HLA A*3201; 0.53 at HLA B*5802. The “Normalized average relative binding affinity(ARB)” value was determined as 0.38 at HLA B*5101; 0.62 at HLA B*1503; 0.39 on HLA B*5401; 0.14 at HLA B*5801; 0.13 at HLA B*5301; 0.19 at H-2 K^d. In addition, the “Normalized average relative binding affinity(ARB)” value at HLA B*0801 is recorded as 0.020; at H-2 D^b, 0.060; at H-2 K^k, 0.095; on H-2 D^d, 0.045.
In the case of XXXXDXXXX [3064.0083], the “Normalized average relative binding affinity(ARB)” value is on record as 0.25 on HLA B*3501; 0.041 on HLA A*3001; 0.17 on HLA B*1501; 0.20 on HLA A*6802; 0.043 at HLA A*3201; 0.12 at HLA B*5802. Besides, the “Normalized average relative binding affinity(ARB)” value on HLA B*5101 turned out to be 0.34; on HLA B*1503, 0.23; on HLA B*5401, 0.27; on HLA B*5801 it was 0.11; on HLA B*5301, 0.13; on H-2 K^d, 0.15. The “Normalized average relative binding affinity(ARB)” value is 0.0054 on HLA B*0801, 0.058 at H-2 D^b, 0.026 at H-2 K^k and 0.049 on H-2 D^d.
XXXXEXXXX [3064.0084]: the “Normalized average relative binding affinity(ARB)” value on HLA B*3501 is 0.34; at HLA A*3001, 0.099; on HLA B*1501, 0.42; on HLA A*6802, 0.20; on HLA A*3201 it was 0.066; at HLA B*5802 it was 0.23. Moreover, the “Normalized average relative binding affinity(ARB)” value worked out at 0.20 at HLA B*5101; 0.41 on HLA B*1503; 0.26 at HLA B*5401; 0.21 on HLA B*5801; 0.15 at HLA B*5301; 0.031 at H-2 K^d. Moreover, the “Normalized average relative binding affinity(ARB)” value at HLA B*0801 came to 0.014; at H-2 D^b, 0.021; at H-2 K^k, 0.11; on H-2 D^d it was 0.059.
Consider XXXXFXXXX [3064.0085], for which the “Normalized average relative binding affinity(ARB)” value at HLA B*3501 is 0.63; on HLA A*3001, 0.38; at HLA B*1501, 0.52; on HLA A*6802 it was 0.87; on HLA A*3201 it was 1.0; at HLA B*5802, 0.089. For the same sequence, the “Normalized average relative binding affinity(ARB)” value on HLA B*5101 was found to be 0.29; at HLA B*1503, 0.78; at HLA B*5401, 1.0; at HLA B*5801, 0.43; at HLA B*5301 it was 1.0; on H-2 K^d it was 0.13. Further, the “Normalized average relative binding affinity(ARB)” value was found to be 0.21 on HLA B*0801, 0.044 on H-2 D^b, 0.19 at H-2 K^k and 0.16 on H-2 D^d.
XXXXGXXXX [3064.0086]: the “Normalized average relative binding affinity(ARB)” value is on record as 0.35 on HLA B*3501; 0.29 at HLA A*3001; 0.77 on HLA B*1501; 1.0 on HLA A*6802; 0.31 on HLA A*3201; 0.37 at HLA B*5802. In addition, the “Normalized average relative binding affinity(ARB)” value at HLA B*5101 is 0.31; at HLA B*1503 it was 0.65; on HLA B*5401 it was 0.19; at HLA B*5801, 0.38; at HLA B*5301, 0.32; at H-2 K^d, 0.30. For the same sequence, the “Normalized average relative binding affinity(ARB)” value on HLA B*0801 was 0.029; on H-2 D^b it was 0.064; on H-2 K^k it was 0.17; on H-2 D^d, 0.11.
